What was measured:
[1] = Investigation of discoloration resistance (UV exposure, judged by eye); type: physicochemical; conditions: in tap water, complexes diluted to 2% (10-40 ppm silver ion), silver compounds 40 ppm, UV 2 hr
[2] = system: (Candida Albicans ATCC 11651); assay: Minimum growth inhibition concentration, test-tube dilution method; type: cell-based
Experimental: (§1) The minimum growth inhibition concentration was measured using test-tube dilution method in order to evaluate the antibacterial activity of the silver complexes obtained in Examples 1-5.

[3] = system: E. coli (Escherichia coli ATCC 25922); assay: as above; type: cell-based; conditions: E. coli ATCC 25922
Experimental: as §1

[4] = system: E. coli O-157 (Escherichia coli ATCC 43895); assay: as above; type: cell-based; conditions: E. coli O-157 ATCC 43895
Experimental: as §1

[5] = system: Staphylococcus aureus ATCC 25923; assay: as above; type: cell-based
Experimental: as §1

[6] = system: Staphylococcus aureus ATCC 6538P; assay: as above; type: cell-based
Experimental: as §1

[7] = system: Trichophyton rubrum ATCC 28188; assay: as above; type: cell-based
Experimental: as §1

[8] = system: Yeast (Trentopholia odorata); assay: as above; type: cell-based
Experimental: as §1

| Molecule | Discoloration [1] | Minimum Growth Inhibition Concentration [2] [ppm] | Minimum Growth Inhibition Concentration [3] [ppm] | Minimum Growth Inhibition Concentration [4] [ppm] | Minimum Growth Inhibition Concentration [5] [ppm] | Minimum Growth Inhibition Concentration [6] [ppm] | Minimum Growth Inhibition Concentration [7] [ppm] | Minimum Growth Inhibition Concentration [8] [ppm] |
| --- | --- | --- | --- | --- | --- | --- | --- | --- |
| O=C([O-])c1ccccc1.[Ag+] [Silver benzoate solution, silver beiizoate, reference compound] | 1 |  |  |  |  |  |  |  |
| O=[N+]([O-])[O-].[Ag+] [Silver nitrate solution, silver nitrate, reference compound] | 1 |  |  |  |  |  |  |  |
| Silver-diethanolamine Complex [Example 5] | 3 | 1 | 1 | 3 | 6 | 7 | 2 | <1 |
| Silver-triethanolamine Complex [Example 4] | 3 | 1 | 1 | 3 | 5 | 5 | 2 | <1 |

Reference: US20030190370A1, “Antibacterial agents, and antibacterial and deodorizing solution comprising the same” (priority 2000, published 2003)
